Reference: patent US20250057993A1, “LABELED INHIBITORS OF PROSTATE SPECIFIC MEMBRANE ANTIGEN (PSMA), THEIR USE AS IMAGING AGENTS AND PHARMACEUTICAL AGENTS FOR THE TREATMENT OF PSMA-EXPRESSING CANCERS” (Universität Heidelberg, priority 2018, published 2025)
Like-named read-outs stand apart in the source and are kept apart here. Each block holds one compound with its values, some of them ahead of it.

Assays:
PSMA [1] = target: T1, PSMA (Homo sapiens, UniProt Q04609); experiment: Competitive binding assay (Ki) on PSMA-positive C4-2 cells; set-up: host or cells: C4-2 cells; conditions: non-labeled ligands vs 0.75 nM 68Ga-PSMA-HBED-CC dimer
Procedure: In vitro and in vivo experiments were performed using the PSMA-positive C4-2 cell line, a subline of the LNCaP (lymph node carcinoma of the prostate) cell line (CRL-3314; American Type Culture Collection). C4-2 cells were cultivated in RPMI 1640 (PAN Biotech) medium supplemented with 10% fetal calf serum and stable glutamine (PAN Biotech). Cells were grown at 37° C. and incubated with humidified air equilibrated with 5% CO2.
A MultiScreenHTS-DV filter plate was incubated at room temperature with 100 μl PBS containing 1% BSA per well for 30 min. After removal of the PBS/BSA solution 1×10^5 C4-2 cells were added Opti-MEM to each well. […] All non-labeled compounds were dissolved in Opti-MEM at a volume of 300 μl with the following concentrations: 0, 0.5, 1, 2.5, 5, 10, 25, 50, 100, 500, 1000 and 5000 nM. Subsequently, 3 μl of the radiolabeled compound was added. 50 μl of this mixture was taken to obtain a 0.75 nM concentration of the radiolabeled ligand. After 45 min incubation at 37° C., the cells were washed twice with PBS on a multiscreen vacuum manifold (Millipore, Billerica, MA) and the cell-bound radioactivity was measured with a gamma counter (Packard Cobra II, GMI, Minnesota, USA). The inhibitory potency was determined using ^68Ga-labeled PSMA-HBED-CC dimer (i.e. PSMA-11) as reference. The Ki was calculated using a nonlinear regression algorithm (Graph Pad Prism 5.01 software). The experiments were performed in quadruplicate.

C4-2 tumor = experiment: Planar scintigraphic imaging of 203Pb-labeled compounds; assay type: in vivo, BALB/c nu/nu mice; conditions: tail vein injection
Procedure: (§1) The in vivo experiments were carried out in accordance with the laws of the German Federal Republic. For PET imaging and biodistribution studies, male nude mice (Balb/c nu/nu mice) (19-23 g) were obtained from Charles River at 4-5 weeks of age and kept under specific-pathogen-free condition for 1 week prior to the study. The mice were housed with a 12-hour/12-hour light/dark cycle and had free access to water and food. The mice were anesthetized with 2% sevoflurane and inoculated subcutaneously on the right trunk with 5×10^7 C4-2 cells in 50% Matrigel in Opti-MEM I (1×) medium. Organ distribution studies were performed, when the size of the tumor was approximately 1 cm^3.
For small-animal imaging the mice were anesthetized with 2% sevoflurane. 0.1 nmol (1.0 MBq) of the ^203Pb-ligand was injected into the tail vein. Serial planar scans were performed using a Gamma Imager SCT (Biospace Lab, Paris, France) with a parallel collimator (35 mm/1.8 mm/0.2 mm) after 10 min, 1 h, 4 h, 24 h. and 72 h. Based on the imaging results, compound CA012 was chosen for biodistribution studies. Experiments were performed in triplicate.

[2] = Serum stability of 68Ga, 177Lu and 64Cu labeled compounds (iTLC, HPLC, pellet activity); assay type: in vitro ADME; conditions: 177Lu-labeled, human serum, 24 h
Procedure: After radiolabeling of the compounds the serum stability was determined by iTLC and HPLC analysis. 50 μL (20 MBq) of the labeled ligands was added to 200 μL of human serum (H4522; Sigma-Aldrich, Germany) and incubated at 37° C. for different time-points (0, 2 h, 24 h, 48 h and 72 h). 0.5×5 cm strips of iTLC-SG-glass microfiber chromatography paper (Folsom, California USA) were used. 0.5 μL of the radiolabeled compound in serum was applied to each strip at 1 cm from the bottom (origin) and the solvent (sodium citrate buffer (0.5 M, pH=5.0) in case of ^177Lu ligands, (1% Na-EDTA, pH=4) in case of Cu labeled ligands) front was allowed to rise to 5 cm from the bottom. Finally, each strip was cut in 8 pieces; each piece was measured in a gamma-counter. For HPLC analysis an equal volume of ACN was added to the samples to precipitate the serum proteins. Subsequently, the samples were centrifuged for 10 min at 13,000 rpm and the pellet and supernatant were separated and the relative activity was measured. The results are expressed as percent. In addition, an aliquot of the supernatant was analyzed by radio-HPLC (0-100% ACN in 5 min, Monolith column), with a flow rate of 2 mL/min.

C4-2 tumor xenograft = experiment: Small-animal PET in C4-2 tumor bearing mice; assay type: in vivo, BALB/c nu/nu mouse
Procedure: as §1
For small-animal PET imaging with various ^64Cu-labeled PSMA ligands, 0.2 nmol, 10 MBq of approximately 100 μL in 0.9% saline the radiolabeled compound were injected into a C4-2 tumor bearing mouse. The dynamic PET was recorded in a small animal PET scanner (Siemens Inveon D-PET, Malvern, PA USA). The SUV values were obtained from conventional (non-dynamic) PET images. The formula for the SUV was:
The volumes-of-interest (VOIs) were obtained by manual delineation of the appropriate whole tissue (heart, kidneys, bladder, tumor—with an approximate volume of 100-500 μl)—or parts of the tissue liver and muscle. […]

[3] = In vivo fate and metabolization of 64Cu-chloride and 64Cu-CA003 (PET, radio-HPLC of tissue extracts); set-up: species or system Swiss mice; conditions: 10 min p.i., mouse without tumor
Procedure: The metabolization in vivo was studied by radio-HPLC analysis. Female Swiss mice (n=3) without tumor were injected via the tail vein with ^64Cu-chloride (10 MBq in approximately 100 μL of 0.9% saline) or ^64Cu-CA003 (9 MBq, 0.30 nmol in approximately 100 μL of 0.9% saline). PET imaging was performed 10 min post injection and subsequently blood, the liver and the kidneys were harvested. The tissues were rinsed with precooled saline, blotted dry and treated with 2 mL of 0.1 M NH4OAc/EtOH (35:65). The tissues were homogenized using an Ultra-Turrax T8 (IKA Labortechnik, Germany). The samples were centrifuged for 10 min at 13,000 rpm (4° C.). Subsequently, the pellet and supernatant were separated and the relative activity was measured. The results are expressed as percent. Additionally, an aliquot of supernatant was prepared for HPLC measurement by precipitation of the proteins with ACN as described above. The sample was analyzed by radio-HPLC (0-100% ACN in 5 min, Monolith column), with a flow rate of 2 mL/min. Fractions were collected every ten seconds over the whole course of the chromatography and the relative activity of the samples was measured in a gamma-counter to reconstruct a chromatogram.

PSMA [4] = target: T1, PSMA; set-up: PET/CT imaging in first patients was performed; from tissue; host or cells: tissues and tumour lesions of prostate cancer patients (in vivo PET/CT); conditions: values from Afshar-Oromieh et al., 2015, cited from earlier work
[5] = In vivo metabolite analysis of 177Lu-labeled ligands (radio-HPLC of tissue extracts); set-up: species or system BALB/c nude mouse; conditions: 1 h p.i., 10 MBq, 0.2 nmol
Procedure: FIG. 24. In vivo metabolite analysis of ^177Lu-CA028 in comparison with ^177Lu-PSMA-617 (10 MBq, 0.2 nmol in approximately 100 μl of 0.9% saline) in a BALB/c nude mouse (tumor) at 1 h p.i. […] This proves the integrity of the complex within the main distribution period.

T1 sequence (Q04609 whole entry): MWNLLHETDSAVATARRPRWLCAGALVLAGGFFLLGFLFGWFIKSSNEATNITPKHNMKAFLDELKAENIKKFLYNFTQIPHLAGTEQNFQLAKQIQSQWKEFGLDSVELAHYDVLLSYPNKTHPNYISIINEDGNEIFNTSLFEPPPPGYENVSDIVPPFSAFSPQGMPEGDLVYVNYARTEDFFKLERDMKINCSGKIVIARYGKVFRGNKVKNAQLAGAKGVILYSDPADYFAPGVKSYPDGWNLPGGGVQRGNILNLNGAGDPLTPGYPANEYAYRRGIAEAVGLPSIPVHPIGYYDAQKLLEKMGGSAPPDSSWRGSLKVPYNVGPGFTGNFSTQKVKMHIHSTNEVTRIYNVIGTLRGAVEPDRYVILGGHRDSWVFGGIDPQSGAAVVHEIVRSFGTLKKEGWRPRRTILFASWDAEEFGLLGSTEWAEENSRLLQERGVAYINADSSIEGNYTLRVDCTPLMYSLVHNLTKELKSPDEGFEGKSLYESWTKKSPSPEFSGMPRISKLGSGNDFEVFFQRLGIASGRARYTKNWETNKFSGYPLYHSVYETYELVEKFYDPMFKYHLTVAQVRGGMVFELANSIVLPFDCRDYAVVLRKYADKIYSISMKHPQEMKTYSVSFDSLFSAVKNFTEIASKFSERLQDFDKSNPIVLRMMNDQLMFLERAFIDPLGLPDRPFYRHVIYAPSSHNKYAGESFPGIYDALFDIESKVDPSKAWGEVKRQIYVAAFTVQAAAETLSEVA

SMILES: [64Cu+2].[Cl-].[Cl-] [^64Cu-chloride]
- tumor-to-liver ratio (C4-2 tumor xenograft; 2 h): 0.38
- tracer accumulation in PET images (in words) (C4-2 tumor xenograft; C4-2 tumour bearing mice): very high liver accumulation
- blood circulation, maximum intensity projection PET [3]: 1.3
- kidney uptake, maximum intensity projection PET [3]: 3.4
- liver uptake, maximum intensity projection PET [3]: 2.7

SMILES: O=C([O-])CN1CCN(CC(=O)[O-])CCN(CC(=O)NCC2CCC(C(=O)N[C@@H](Cc3ccc4ccccc4c3)C(=O)NCCCC[C@H](NC(=O)N[C@@H](CCC(=O)O)C(=O)O)C(=O)O)CC2)CCN(CC(=O)[O-])CC1.[68Ga+3] (some centres unmarked) [^68Ga-PSMA-617]
- SUVmean Blood pool, mediastinal (PSMA [4]; 1 h): 2.5
- SUVmean Bone met (PSMA [4]; 1 h): 9.4
- SUVmean Colon (PSMA [4]; 1 h): 3.5
- SUVmean Gluteal muscle (PSMA [4]; 1 h): 0.7
- SUVmean Kidneys (PSMA [4]; 1 h): 15.6
- SUVmean Lacrimal gland (PSMA [4]; 1 h): 4.9
- SUVmean Liver (PSMA [4]; 1 h): 3.3
- SUVmean Lymph node (PSMA [4]; 1 h): 7.1
- SUVmean Nasal mucosa (PSMA [4]; 1 h): 2.9
- SUVmean Parotid gland (PSMA [4]; 1 h): 10.4
- SUVmean Prox. Small intestine (PSMA [4]; 1 h): 4.7
- SUVmean Spleen (PSMA [4]; 1 h): 4.3
- SUVmean Sublingual gland (PSMA [4]; 1 h): 4.6
- SUVmean Submandibular gland (PSMA [4]; 1 h): 10
- SUVmean Blood pool, mediastinal (PSMA [4]; 3 h): 2.4
- SUVmean Bone met (PSMA [4]; 3 h): 6.3
- SUVmean Colon (PSMA [4]; 3 h): 4.0
- SUVmean Gluteal muscle (PSMA [4]; 3 h): 0.7
- SUVmean Kidneys (PSMA [4]; 3 h): 17.0
- SUVmean Lacrimal gland (PSMA [4]; 3 h): 5.9
- SUVmean Liver (PSMA [4]; 3 h): 2.7
- SUVmean Lymph node (PSMA [4]; 3 h): 13.5
- SUVmean Nasal mucosa (PSMA [4]; 3 h): 3.4
- SUVmean Parotid gland (PSMA [4]; 3 h): 13.1
- SUVmean Prox. Small intestine (PSMA [4]; 3 h): 5.5
- SUVmean Spleen (PSMA [4]; 3 h): 3.5
- SUVmean Sublingual gland (PSMA [4]; 3 h): 4.0
- SUVmean Submandibular gland (PSMA [4]; 3 h): 12.4

SMILES: O=C([O-])CN1CCN(CC(=O)[O-])CCN(CC(=O)NCC2CCC(C(=O)N[C@@H](Cc3ccc4ccccc4c3)C(=O)NCCCC[C@H](NC(=O)N[C@@H](CCC(=O)O)C(=O)O)C(=O)O)CC2)CCN(CC(=O)[O-])CC1.[177Lu+3] (some centres unmarked) [^177Lu-PSMA-617]
- integrity of tracer in extracts from kidney, blood, liver and tumor (radio-HPLC) [5]: activity elutes at the retention time of the intact tracer

Continued, in another order:

- Ki / binding affinity to PSMA (in words) (PSMA [1]): particularly high affinity
SMILES: O=C(O)CCC(NC(=O)NC(CCCCNC(=O)C(Cc1ccc2ccccc2c1)NC(=O)C1CCC(CNC(=O)c2ccc(CN3CCCNCCNCCCNCC3)cc2)CC1)C(=O)O)C(=O)O (centres unmarked) [CA003]

- Ki / binding affinity to PSMA (in words) (PSMA [1]): highest affinity
SMILES: NC(=O)CN1CCN(CC(N)=O)CCN(CC(N)=O)C(Cc2ccc(NC(=S)NCC3CCC(C(=O)NC(Cc4ccc5ccccc5c4)C(=O)NCCCCC(NC(=O)NC(CCC(=O)O)C(=O)O)C(=O)O)CC3)cc2)CN(CC(N)=O)CC1 (centres unmarked) [CA009]
- tumor uptake / retention in planar scintigraphy (in words) (C4-2 tumor): high uptake of the tracer in the tumor tissue

- Ki / binding affinity to PSMA (in words) (PSMA [1]): highest affinity
SMILES: NC(=O)CN1CCN(CC(N)=O)CCN(CC(=O)NCC2CCC(C(=O)NC(Cc3ccc4ccccc4c3)C(=O)NCCCCC(NC(=O)NC(CCC(=O)O)C(=O)O)C(=O)O)CC2)CCN(CC(N)=O)CC1 (centres unmarked) [CA012]
- tumor uptake / retention in planar scintigraphy (in words) (C4-2 tumor): high uptake of the tracer in the tumor tissue

- free 177Lu [2]: no free activity
SMILES: O=C(O)CCC(NC(=O)NC(CCCCNC(=O)C(Cc1ccc2ccccc2c1)NC(=O)C1CCC(CNC(=S)Nc2ccc(CC3CN(CC(=O)O)CCN(CC(=O)O)CCN(CC(=O)O)CCN3CC(=O)O)cc2)CC1)C(=O)O)C(=O)O (centres unmarked) [CA029]

- free 177Lu [2]: no free activity
SMILES: O=C(O)CC[C@H](NC(=O)N[C@@H](CCCCNC(=O)[C@H](Cc1ccc2ccccc2c1)NC(=O)[C@H]1CC[C@H](CNC(=O)CN2CCN(CC(=O)O)CCN(CC(=O)O)CCN(CC(=O)O)CC2)CC1)C(=O)O)C(=O)O [PSMA-617]
